# Laboratory results: PMC10267561, “PI3P-dependent regulation of cell size and autophagy by phosphatidylinositol 5-phosphate 4-kinase” (Life Science Alliance, 2023)
# Target: T1, Mtm (Mtm^WT::GFP) (Drosophila melanogaster, UniProt Q9VMI9)
# T1 construct: C-terminal GFP tag, overexpressed (da-Gal4) in third instar larvae, whole larval lysate; ~100 kD
# T1 sequence (Q9VMI9 1-619): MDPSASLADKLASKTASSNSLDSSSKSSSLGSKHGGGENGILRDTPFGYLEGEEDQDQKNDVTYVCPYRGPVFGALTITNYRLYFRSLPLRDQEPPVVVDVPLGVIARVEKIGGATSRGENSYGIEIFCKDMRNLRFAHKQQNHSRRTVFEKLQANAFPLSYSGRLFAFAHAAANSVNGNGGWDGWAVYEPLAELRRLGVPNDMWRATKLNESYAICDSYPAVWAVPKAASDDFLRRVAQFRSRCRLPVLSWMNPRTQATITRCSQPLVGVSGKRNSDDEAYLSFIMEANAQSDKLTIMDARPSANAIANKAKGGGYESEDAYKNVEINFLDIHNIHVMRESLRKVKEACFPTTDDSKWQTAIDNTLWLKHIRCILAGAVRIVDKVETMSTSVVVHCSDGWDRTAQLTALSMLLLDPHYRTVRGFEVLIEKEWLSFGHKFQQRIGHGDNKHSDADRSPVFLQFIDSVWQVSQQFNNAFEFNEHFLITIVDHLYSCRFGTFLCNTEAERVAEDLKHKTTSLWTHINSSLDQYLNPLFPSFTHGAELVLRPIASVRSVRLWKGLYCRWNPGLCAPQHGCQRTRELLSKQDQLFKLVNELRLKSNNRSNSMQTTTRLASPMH
# Assay: LC-MS/MS in vitro 3-phosphatase assay, overexpressing larval lysate vs control lysate
# Type: biochemical
# Conditions: pH 7.4 lipid suspension, phosphatidylserine, 15 min, 37 °C; 10 ug lysate protein
compound,measurement,value
CCCCC/C=C\C/C=C\C/C=C\C/C=C\CCCC(=O)O[C@H](COC(=O)CCCCCCCCCCCCCCCC)COP(=O)(O)O[C@@H]1[C@H](O)[C@H](OP(=O)(O)O)[C@@H](O)[C@H](O)[C@H]1O [17:0 20:4 PI3P],"3-phosphatase activity, overexpressing vs control lysate",lysates with Mtm overexpression showed significantly higher PI3P 3-phosphatase activity compared with control lysates
